Reference: patent US9486447B2, “Compositions and methods for controlling neuronal excitation” (The General Hospital Corporation, priority 2011, dated 2016)

Legend:
[1] = UV-Vis absorbance spectrum; assay type: physicochemical
From the text: (§1) How might optovin activate TRPA1? When molecules absorb light, photons can excite electrons from their ground state to a […] via intersystem crossing^37. These photoactivated compounds can then undergo reactions by transferring energy or electrons to target molecules, including aqueous molecular oxygen. Optovin is a yellow-colored compound with peak absorbance at 415 nm (FIG. 4A). To determine if optovin is photochemically reactive, it was exposed to increasing intensities of 415 nm light and assayed for reactive oxygen species (ROS) generation.
Assay for singlet oxygen generation using singlet oxygen sensor green (SOSG) UV-vis absorption spectra were recorded at 20 uM in methanol using an Evolution 300 UV-Vis Spectrophotometer (Thermo Fisher Scientific Inc., Waltham, Mass.). 96-well black-sided plates were used for fluorescent probe experiments. […] An Omnilux Clear-U LED light source (Photo Therapeutics Inc), Carlsbad, Calif.) that emits blue light 415-nm+15-nm as a homogeneous spot with an irradiance of 50 mW/cm^2 measured with a power meter (model DMM 199 with 201 standard head; Coherent, Santa Clara, Calif.) that covers an area of one half of a 96-well plate.

[2] = Reactive oxygen species generation (singlet oxygen sensor green, NBT); assay type: physicochemical
From the text: as §1
Assay for singlet oxygen generation using singlet oxygen sensor green (SOSG) UV-vis absorption spectra were recorded at 20 uM in methanol using an Evolution 300 UV-Vis Spectrophotometer (Thermo Fisher Scientific Inc., Waltham, Mass.). 96-well black-sided plates were used for fluorescent probe experiments. SOSG (Molecular Probes Invitrogen, Eugene, Oreg.) as a 1 mM stock solution in DMF was added to give final concentration of 5 μM SOSG, to optovin and analogues dissolved as 5 μM solutions in 200 μL 50% H2O/CH3CN preloaded in 96-well plates. An Omnilux Clear-U LED light source (Photo Therapeutics Inc), Carlsbad, Calif.) that emits blue light 415-nm+15-nm as a homogeneous spot with an irradiance of 50 mW/cm^2 measured with a power meter (model DMM 199 with 201 standard head; Coherent, Santa Clara, Calif.) that covers an area of one half of a 96-well plate.
Fluorescence spectrophotometry was carried out with SpectraMax M5 plate reader (Molecular Devices, Sunnyvale, Calif.) using excitation and emission at 504 and 525-nm Fluorescence was read after each successive increment of blue light was delivered. As a positive control for a known photosensitizer that absorbs 415-nm light with a quantum yield of singlet oxygen of approximately 0.6 we used a conjugate between polyethylenimine and chlorin(e6) (PEI-ce6)^46.

[3] = target: hERG potassium channel (Homo sapiens, UniProt Q12809); assay: hERG inhibition, FluxOR system; assay type: cell-based; settings: with or without prior exposure to light
Chain of hERG potassium channel (Q12809 whole entry): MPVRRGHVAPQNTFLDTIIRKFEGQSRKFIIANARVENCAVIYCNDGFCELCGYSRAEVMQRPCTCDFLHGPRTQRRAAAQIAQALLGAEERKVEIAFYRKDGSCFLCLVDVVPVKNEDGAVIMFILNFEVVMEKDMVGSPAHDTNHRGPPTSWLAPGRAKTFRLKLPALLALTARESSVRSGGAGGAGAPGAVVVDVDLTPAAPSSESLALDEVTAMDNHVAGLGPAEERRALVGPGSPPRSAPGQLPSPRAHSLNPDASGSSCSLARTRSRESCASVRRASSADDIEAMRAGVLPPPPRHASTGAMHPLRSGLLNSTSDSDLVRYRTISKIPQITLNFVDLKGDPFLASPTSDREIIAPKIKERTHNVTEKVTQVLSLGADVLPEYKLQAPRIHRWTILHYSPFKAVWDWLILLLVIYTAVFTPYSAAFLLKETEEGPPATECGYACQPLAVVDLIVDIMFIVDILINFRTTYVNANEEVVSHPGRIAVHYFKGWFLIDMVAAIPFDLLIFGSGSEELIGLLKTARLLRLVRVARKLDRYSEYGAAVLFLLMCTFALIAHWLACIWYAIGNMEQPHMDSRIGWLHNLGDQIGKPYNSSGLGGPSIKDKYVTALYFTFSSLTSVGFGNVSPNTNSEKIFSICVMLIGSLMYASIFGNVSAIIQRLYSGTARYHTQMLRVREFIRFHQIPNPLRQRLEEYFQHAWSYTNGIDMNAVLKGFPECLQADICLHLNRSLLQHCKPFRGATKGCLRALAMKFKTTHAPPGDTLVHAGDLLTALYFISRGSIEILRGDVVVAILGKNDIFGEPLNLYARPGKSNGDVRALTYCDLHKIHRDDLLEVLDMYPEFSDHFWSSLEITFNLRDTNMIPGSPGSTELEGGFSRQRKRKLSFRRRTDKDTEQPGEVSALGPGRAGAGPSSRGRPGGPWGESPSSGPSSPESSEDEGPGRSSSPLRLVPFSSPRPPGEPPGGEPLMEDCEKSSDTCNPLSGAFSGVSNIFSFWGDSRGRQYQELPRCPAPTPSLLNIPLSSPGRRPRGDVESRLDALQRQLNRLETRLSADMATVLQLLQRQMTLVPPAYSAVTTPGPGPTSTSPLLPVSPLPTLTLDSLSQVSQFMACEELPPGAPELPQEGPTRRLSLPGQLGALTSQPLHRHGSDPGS
Protocol: Optovin (PDSP 22594) was tested for hERG inhibition using the FluxOR system with cisapride as a positive control.

[4] = target: T1, D5 (Homo sapiens, UniProt P21918); assay: NIMH PDSP binding assay; settings: primary screening, mean of N = 4 determinations
T1 construct: NIMH PDSP
T1 sequence (P21918 whole entry): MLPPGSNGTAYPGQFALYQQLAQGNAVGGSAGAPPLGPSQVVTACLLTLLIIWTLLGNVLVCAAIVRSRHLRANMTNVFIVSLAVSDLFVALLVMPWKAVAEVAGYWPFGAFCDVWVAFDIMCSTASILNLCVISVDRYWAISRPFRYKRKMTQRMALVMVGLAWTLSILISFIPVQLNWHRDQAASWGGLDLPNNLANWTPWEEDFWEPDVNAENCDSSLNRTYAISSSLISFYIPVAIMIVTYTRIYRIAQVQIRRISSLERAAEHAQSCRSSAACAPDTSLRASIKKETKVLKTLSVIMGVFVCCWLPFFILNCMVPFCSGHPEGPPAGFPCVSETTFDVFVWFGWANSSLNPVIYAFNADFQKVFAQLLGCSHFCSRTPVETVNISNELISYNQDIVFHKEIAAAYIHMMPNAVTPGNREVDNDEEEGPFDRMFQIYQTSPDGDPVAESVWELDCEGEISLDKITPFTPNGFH
From the text: (§2) To determine if optovin's mechanism of action could be predicted via behavioral profiling^30,32, optovin's behavioral profile was compared to the behavioral profiles of 700 annotated neuroactive compounds tested in triplicate. These compounds include ligands targeting the adrenergic, serotonergic, histaminergic, dopaminergic, cholinergic and glutamatergic pathways. […] To gain insight into optovin's mechanism of action, optovin and two active optovin analogs were profiled using the National Institutes of Mental Health Psychoactive Drug Screening Program (NIMH PDSP) to determine their activities against a panel of human and rodent CNS receptors, channels and transporters.
(§3) Activity determinations were generously provided by the National Institute of Mental Health's Psychoactive Drug Screening Program, Contract # HHSN-271-2008-00025-C(NIMH PDSP). Complete assay details are found on-line at: http://pdsp.med.unc.edu/UNC-CH %20Protocol %20Book.pdf

[5] = target: T2, H1 (Homo sapiens, UniProt P35367); assay: NIMH PDSP binding assay; settings: primary screening, mean of N = 4 determinations
T2 construct: NIMH PDSP
From the text: as §2, §3

[6] = target: T3, D1 (Homo sapiens, UniProt P21728); assay: NIMH PDSP binding assay; settings: primary screening, mean of N = 4 determinations
T3 construct: NIMH PDSP
T3 sequence (P21728 whole entry): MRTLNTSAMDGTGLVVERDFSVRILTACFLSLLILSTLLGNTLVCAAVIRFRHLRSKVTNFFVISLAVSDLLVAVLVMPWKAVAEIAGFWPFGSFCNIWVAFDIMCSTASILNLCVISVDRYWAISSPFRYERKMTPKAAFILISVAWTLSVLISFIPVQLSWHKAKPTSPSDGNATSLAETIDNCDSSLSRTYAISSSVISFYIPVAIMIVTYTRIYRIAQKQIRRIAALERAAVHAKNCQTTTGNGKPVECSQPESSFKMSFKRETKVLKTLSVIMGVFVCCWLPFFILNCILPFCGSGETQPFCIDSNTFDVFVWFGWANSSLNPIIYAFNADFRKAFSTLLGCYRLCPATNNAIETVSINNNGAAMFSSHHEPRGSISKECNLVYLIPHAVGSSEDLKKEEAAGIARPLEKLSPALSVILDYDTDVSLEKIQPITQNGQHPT
From the text: as §2, §3

[7] = system: GABAA; assay: NIMH PDSP binding assay; settings: primary screening, mean of N = 4 determinations
From the text: as §2, §3

[8] = target: T4, D3 (Homo sapiens, UniProt P35462); assay: NIMH PDSP binding assay; settings: primary screening, mean of N = 4 determinations
T4 construct: NIMH PDSP
T4 sequence (P35462 whole entry): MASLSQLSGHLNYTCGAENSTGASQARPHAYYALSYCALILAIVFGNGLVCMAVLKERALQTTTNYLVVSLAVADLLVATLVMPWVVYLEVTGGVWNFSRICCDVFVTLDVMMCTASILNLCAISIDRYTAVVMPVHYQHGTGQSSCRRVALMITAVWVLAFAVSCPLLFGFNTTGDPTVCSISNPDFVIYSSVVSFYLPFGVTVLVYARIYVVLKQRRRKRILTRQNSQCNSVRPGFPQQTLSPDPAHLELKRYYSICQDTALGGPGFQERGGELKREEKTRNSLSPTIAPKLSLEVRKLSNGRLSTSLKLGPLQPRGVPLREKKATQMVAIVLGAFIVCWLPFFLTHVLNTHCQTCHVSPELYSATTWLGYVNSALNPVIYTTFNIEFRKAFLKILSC
From the text: as §2, §3

[9] = target: T5, DOR (Homo sapiens, UniProt P41143); assay: NIMH PDSP binding assay; settings: primary screening, mean of N = 4 determinations
T5 construct: NIMH PDSP
T5 sequence (P41143 whole entry): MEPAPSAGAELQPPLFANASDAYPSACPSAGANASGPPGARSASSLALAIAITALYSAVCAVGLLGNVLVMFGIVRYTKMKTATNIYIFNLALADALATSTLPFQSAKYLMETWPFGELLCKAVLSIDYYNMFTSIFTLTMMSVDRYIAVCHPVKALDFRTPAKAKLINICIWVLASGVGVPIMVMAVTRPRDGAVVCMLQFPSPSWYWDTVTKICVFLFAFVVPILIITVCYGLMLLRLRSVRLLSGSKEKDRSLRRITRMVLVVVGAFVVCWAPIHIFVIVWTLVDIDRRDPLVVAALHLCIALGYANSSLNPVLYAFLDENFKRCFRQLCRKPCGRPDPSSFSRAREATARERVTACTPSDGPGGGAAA
From the text: as §2, §3

[10] = target: T6, M2 (Homo sapiens, UniProt P08172); assay: NIMH PDSP binding assay; settings: primary screening, mean of N = 4 determinations
T6 construct: NIMH PDSP
From the text: as §2, §3

[11] = target: 5-HT2B (Homo sapiens, UniProt P41595); assay: NIMH PDSP binding assay; settings: primary screening, mean of N = 4 determinations
Chain of 5-HT2B (P41595 whole entry, species assumed): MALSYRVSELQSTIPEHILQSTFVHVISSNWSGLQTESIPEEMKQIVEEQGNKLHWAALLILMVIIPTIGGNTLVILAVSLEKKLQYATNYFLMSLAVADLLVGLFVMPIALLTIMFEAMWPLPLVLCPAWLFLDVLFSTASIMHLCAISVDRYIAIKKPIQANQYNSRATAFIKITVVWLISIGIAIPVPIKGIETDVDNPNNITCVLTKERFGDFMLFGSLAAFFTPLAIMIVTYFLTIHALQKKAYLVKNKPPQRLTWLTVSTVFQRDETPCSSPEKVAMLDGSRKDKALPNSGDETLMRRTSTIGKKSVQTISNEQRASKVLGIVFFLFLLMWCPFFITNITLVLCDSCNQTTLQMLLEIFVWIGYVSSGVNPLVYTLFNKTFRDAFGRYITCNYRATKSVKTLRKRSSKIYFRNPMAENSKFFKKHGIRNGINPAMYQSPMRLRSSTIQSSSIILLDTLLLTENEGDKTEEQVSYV
From the text: as §2, §3

[12] = target: T7, Beta2 (Homo sapiens, UniProt P07550); assay: NIMH PDSP binding assay; settings: primary screening, mean of N = 4 determinations
T7 construct: NIMH PDSP
T7 sequence (P07550 whole entry): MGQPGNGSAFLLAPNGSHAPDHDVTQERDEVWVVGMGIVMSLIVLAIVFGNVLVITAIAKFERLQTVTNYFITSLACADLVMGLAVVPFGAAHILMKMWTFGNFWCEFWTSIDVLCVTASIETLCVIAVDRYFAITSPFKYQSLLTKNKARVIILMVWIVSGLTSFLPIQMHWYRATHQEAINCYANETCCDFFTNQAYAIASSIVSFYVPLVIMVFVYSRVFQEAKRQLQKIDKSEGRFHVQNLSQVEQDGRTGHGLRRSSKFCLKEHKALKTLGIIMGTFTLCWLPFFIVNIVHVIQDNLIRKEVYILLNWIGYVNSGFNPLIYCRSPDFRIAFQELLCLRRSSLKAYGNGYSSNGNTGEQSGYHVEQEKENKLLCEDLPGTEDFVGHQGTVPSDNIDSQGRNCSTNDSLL
From the text: as §2, §3

[13] = target: T8, hTRPA1 C633S (Homo sapiens, UniProt O75762, C633S); assay: Calcium imaging of transfected HEK cells; assay type: cell-based; settings: compared with WT channels
T8 construct: expressed in transfected cells; host or cells: HEK293
T8 sequence (O75762 whole entry C633S): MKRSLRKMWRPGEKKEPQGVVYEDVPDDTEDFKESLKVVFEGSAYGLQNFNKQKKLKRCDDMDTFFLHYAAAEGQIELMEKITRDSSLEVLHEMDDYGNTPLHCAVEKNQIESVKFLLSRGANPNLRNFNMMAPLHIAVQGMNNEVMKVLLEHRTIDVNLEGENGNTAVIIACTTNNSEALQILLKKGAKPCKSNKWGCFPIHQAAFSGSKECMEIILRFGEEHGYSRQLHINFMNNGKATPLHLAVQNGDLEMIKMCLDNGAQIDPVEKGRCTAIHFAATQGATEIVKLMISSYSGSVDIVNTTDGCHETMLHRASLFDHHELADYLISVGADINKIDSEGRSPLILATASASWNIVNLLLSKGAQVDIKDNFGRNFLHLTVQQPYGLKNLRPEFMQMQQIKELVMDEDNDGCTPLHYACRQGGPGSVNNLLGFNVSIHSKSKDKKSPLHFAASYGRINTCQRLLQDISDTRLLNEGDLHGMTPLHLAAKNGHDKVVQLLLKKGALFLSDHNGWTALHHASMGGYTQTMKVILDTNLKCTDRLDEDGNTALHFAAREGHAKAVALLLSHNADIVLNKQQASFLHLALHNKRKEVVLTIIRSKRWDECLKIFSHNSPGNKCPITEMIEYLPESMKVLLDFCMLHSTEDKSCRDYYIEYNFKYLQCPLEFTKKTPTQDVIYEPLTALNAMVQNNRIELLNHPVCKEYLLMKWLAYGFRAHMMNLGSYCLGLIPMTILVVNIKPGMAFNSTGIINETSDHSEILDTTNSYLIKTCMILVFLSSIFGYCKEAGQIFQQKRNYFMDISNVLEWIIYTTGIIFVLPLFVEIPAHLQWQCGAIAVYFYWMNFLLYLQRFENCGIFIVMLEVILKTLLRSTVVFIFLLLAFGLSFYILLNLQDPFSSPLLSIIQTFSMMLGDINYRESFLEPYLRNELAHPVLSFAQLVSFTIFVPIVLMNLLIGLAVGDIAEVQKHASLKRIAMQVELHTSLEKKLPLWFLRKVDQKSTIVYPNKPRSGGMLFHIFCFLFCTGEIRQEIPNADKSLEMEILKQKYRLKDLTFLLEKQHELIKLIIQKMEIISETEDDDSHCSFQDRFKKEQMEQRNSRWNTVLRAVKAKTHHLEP
Protocol: (§4) Reactive electrophilic compounds activate TRPA1 channels through the covalent modification of specific cysteine residues including those at amino acid positions 621, 633, and 856. Point mutations in these cysteines can reduce hTRPA1 activation by specific ligands without disrupting overall channel function^39,40. To determine if these cysteine residues are also important for TRPA1 activation by optovin, intracellular calcium levels were measured in cells transfected with wildtype and mutant hTRPA1 channels. […] Rhodanine and hydantoin are photoelectric moieties used in photovoltaic panels and other photochemical applications^41,42. Nevertheless, photosensitization alone is insufficient to grant optovin its unusual biological activity. For example, optovin is phenotypically unique compared to 171 additional rhodanine-containing compounds contained in the screening library (data not shown).
(§5) HEK293 cells were plated onto poly-lysine-coated glass bottom culture dishes (MatTek Corp), and grown in Dulbecco's Modified Eagle's Medium (DMEM, Sigma) supplemented with 10% fetal bovine serum and 100 U/mL penicillin and 100 μg/ml streptomycin. After 24 hrs, cells were transfected, according to manufacturer's instructions, in Opti-MEM media, using 4 μl lipofectamine 2000 (Invitrogen), 0.5 ug EGFP in pcDNA, and 0.3 μg TrpA1 DNA per dish. Media was replaced after 2 hours, and cells were cultured for an additional 17 hours. As previously described for neurons, HEK cells were washed with assay buffer (HBSS Gibco 14025, supplemented with 9 mM HEPES, 11 mM D-glucose, 0.1% fatty-acid free BSA, pH 7.3) and incubated for 1 h with 2 μM Fura2-AM (Invitrogen) with 0.2% pluronic (Invitrogen) in assay buffer in the dark at room temperature. The cells were then washed with assay buffer and allowed to equilibrate at room temperature for 30 min prior to imaging. At the start of the imaging session for each dish, cells were replaced with DMSO-assay buffer. After 50 seconds of imaging, assay buffer was aspirated by hand, and replaced with 100 μM optovin dissolved in the DMSO-assay buffer solution. […]

[14] = target: T9, hTRPA1 C621S (Homo sapiens, UniProt O75762, C621S); assay: Calcium imaging of transfected HEK cells; assay type: cell-based; settings: compared with WT channels
T9 construct: expressed in transfected cells; host or cells: HEK293
T9 sequence (O75762 whole entry C621S): as the sequence (O75762 whole entry C633S) above, with C621S, S633C counted along it
Protocol: as §4, §5

## Cc1cc(/C=C2/SC(=S)NC2=O)c(C)n1-c1cccnc1 [optovin]
[1]
  peak absorbance: 415 nm
[2]; 415 nm light
  hydroxyl radical and superoxide generation: neither hydroxyl radicals nor superoxide
  singlet oxygen generation: generates singlet oxygen
[2]; estimated by comparison with PEI-ce6
  singlet oxygen quantum yield: about 0.04
[3]
  effect on hERG activity: no effect on hERG activity
[4]
  Avg % inhibition (D5): 13.6%
[5]
  Avg % inhibition (H1): 1.1%
[6]
  Avg % inhibition (D1): 9.0%
[7]
  Avg % inhibition (GABAA): −2.2%
[8]
  Avg % inhibition (D3): 34.3%
[9]
  Avg % inhibition (DOR): −7.2%
[10]
  Avg % inhibition (M2): 6.6%
[11]
  Avg % inhibition (5-HT2B): −2.0%
[12]
  Avg % inhibition (Beta2): −3.8%
[13]
  response to light and optovin (intracellular calcium): significantly decreased response
[14]
  response to light and optovin (intracellular calcium): significantly decreased response
